Test results as given in patent US12559750B2, “Methods and compositions for treatment of polycystic kidney disease” (Regulus Therapeutics Inc., priority 2021, dated 2026).

Legend:
mice = settings: in vivo
Experimental: Each compound was tested in a single dose at 2000 mg/kg, and at escalating doses (100, 450, and 2000 mg/kg).

miR-17 [1] = assay: miR-17 PD-Sig in human kidney cell lines; type: cell-based
C57Bl/6J male mice = assay: ICV maximum tolerated dose study, Study 1; type: in vivo, mouse; settings: for Mortality/total number of mice: 7-day
Experimental: Compounds (RG-NG-1017, RGLS4326, RG-NG-1001) were evaluated in a pilot maximum tolerated dose (MTD) study (discussed below). RG-NG-1017, RGLS4326 and RG-NG-1001 were initially evaluated at 4 dose-levels each. RG-NG-1017 was included for evaluation as a non-AMPA-R binding compound, as compared to RGLS4326 and RG-NG-1001, which bind AMPA-R. C57Bl/6J male mice (Jackson Laboratories), age 6-7 weeks, were used in this study. Mice were assigned randomly to treatment groups, and the study was blinded. Animals were allowed to acclimate for no less than 5 days and housed on a 12 hr light/dark cycle (lights on 7:00 AM). No more than 4 mice were house in each cage in a ventilated cage rack system. The diet consisted of standard rodent chow and water ad libitum.
The following parameters were used for this study: • 1. Route(s) of administration: intracerebroventricular (ICV) dosing of RG-NG-1017, RG-NG-1001, RGLS4326 • 2. Dose Volume(s): 4 μL • 3. Formulation(s): vehicle, Ca^2+ and Mg^2+ free dPBS • 4. Dose Frequency: Once • 5. Study duration: 8 Days • 6. Number of Groups: 3 • 7. Number of animals per group: (2-4 each group) • 8. Total number of animals: […]
For the ICV administration, mice were anesthetized and positioned for injections. The skin over the skull was incised, and a small hole was made in the skull above the target using a microdrill. The stereotactic coordinates were anteroposterior (AP), −0.4 mm; mediolateral (ML), +/−1.0-1.5 mm; dorsoventral (DV), −3.0 mm from the bregma for injection into both the right and left lateral cerebral ventricles (Hironaka et al, 2015). Animals were injected unilaterally with 4 μl into the right lateral cerebral ventricle. Compounds were injected over 1-2 min, and the needle was left in place for 0.5-1 min prior to withdrawal. The incision was closed with sutures, wound clips, or VetBond.
Following ICV treatment (Day 0), animals were monitored for 7 days in which daily health checks, body weight, and mortality was recorded. On Day 7, brain and kidney were collected and fixed (10% formalin) and stored pending histology.

miR-17 [2] = assay: miR-17 PD-Sig in mouse kidney cell lines; type: cell-based
Experimental: The activity of certain compounds was evaluated using a mouse miR-17 Pharmacodynamic-Signature (miR-17 PD-Sig), which consists of the expression of 18 unique miR-17 target genes normalized by six reference housekeeping genes, to provide an unbiased and comprehensive assessment of miR-17 activity. The mouse miR-17 PD-Sig score was the calculated average of the 18 genes' individual log 2 fold changes (normalized by six housekeeping genes) compared to mock transfection (Lee et al., Nat. Commun., 2019, 10, 4148).
The PD-Sig for RGLS4326 in mIMCD3 cells (77.2, indicated by “*”) was not generated in this experiment; the value in Table 14 is that reported by Lee et al., Nat. Commun., 2019, 10, 4148. Blank cells in the table indicate that a compound was not tested in a particular cell line.

miR-17 [3] = assay: microRNA polysome shift assay (miPSA) in kidney of wild type mice; type: in vivo, mouse; parameters: scale not given here; settings: seven days later
Experimental: In vivo potency was evaluated using the microRNA polysome shift assay (miPSA). This assay was used to determine the extent to which compounds directly engage the miR-17 target in the kidney in normal and PKD mice. The miPSA relies on the principle that active miRNAs bind to their mRNA targets in translationally active high molecular weight (HMW) polysomes, whereas the inhibited miRNAs reside in the low MW (LMW) polysomes. Treatment with anti-miR results in a shift of the microRNA from HMW polysomes to LMW polysomes. Thus, the miPSA provides a direct measurement of microRNA target engagement by a complementary anti-miR (Androsavich et al., Nucleic Acids Research, 2015, 44: e13).
Wild type mice were administered a single dose of 0.3 mg/kg, 3 mg/kg, or 30 mg/kg. Kidney tissue was collected seven days later and subjected to the miPSA. The mean displacement score for each treatment is shown in Table 15 (PBS, n=17; RGLS4326 30 mg/kg, n=10; all other treatments, n=4-5). The tested oligonucleotides displaced miR-17 from translationally active polysome (as measured by miPSA) in normal mouse kidneys.

AMPA-R = assay: [3H]AMPA radioligand binding assay on rat brain synaptic membranes;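 further: competition binding in which test compounds at rising concentrations displace [3H]AMPA from AMPA-R on rat brain synaptic membranes, with reduced bound radioligand as read-out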
Experimental: The activity of anti-miR-17 compounds was evaluated in a radioligand binding assay which measured the binding of the [^3H] AMPA ligand to the AMPA-R present on rat brain synaptic membranes, in the presence of increasing concentrations of anti-miR-17 compound, anti-miR-17 compounds with affinity for the AMPA-R will bind to and compete with the binding of the [^3H] AMPA ligand.
5.0 nM of the ligand [^3H] AMPA, 1.0 mM of the non-specific ligand L-Glutamic acid, and anti-miR compound at uM concentrations were incubated with synaptic membranes prepared from Wistar rat cerebral cortex for 90 minutes.
The compounds were tested in the radioligand binding assay described herein, to determine the ability of the anti-miR-17 compounds to and compete with the binding of the [3H] AMPA ligand.

AMPA-R (GluA1/GluA4) = biological target: T1, AMPA-R (GluA1/GluA4) (Homo sapiens, UniProt P42261+P48058); assay: Manual whole-cell patch clamp, ChanTest GluA1/GluA4 EZCells; type: cell-based
T1 construct: host or cells: ChanTest GluA1/GluA4 EZCells
T1 sequence (P42261 19-906): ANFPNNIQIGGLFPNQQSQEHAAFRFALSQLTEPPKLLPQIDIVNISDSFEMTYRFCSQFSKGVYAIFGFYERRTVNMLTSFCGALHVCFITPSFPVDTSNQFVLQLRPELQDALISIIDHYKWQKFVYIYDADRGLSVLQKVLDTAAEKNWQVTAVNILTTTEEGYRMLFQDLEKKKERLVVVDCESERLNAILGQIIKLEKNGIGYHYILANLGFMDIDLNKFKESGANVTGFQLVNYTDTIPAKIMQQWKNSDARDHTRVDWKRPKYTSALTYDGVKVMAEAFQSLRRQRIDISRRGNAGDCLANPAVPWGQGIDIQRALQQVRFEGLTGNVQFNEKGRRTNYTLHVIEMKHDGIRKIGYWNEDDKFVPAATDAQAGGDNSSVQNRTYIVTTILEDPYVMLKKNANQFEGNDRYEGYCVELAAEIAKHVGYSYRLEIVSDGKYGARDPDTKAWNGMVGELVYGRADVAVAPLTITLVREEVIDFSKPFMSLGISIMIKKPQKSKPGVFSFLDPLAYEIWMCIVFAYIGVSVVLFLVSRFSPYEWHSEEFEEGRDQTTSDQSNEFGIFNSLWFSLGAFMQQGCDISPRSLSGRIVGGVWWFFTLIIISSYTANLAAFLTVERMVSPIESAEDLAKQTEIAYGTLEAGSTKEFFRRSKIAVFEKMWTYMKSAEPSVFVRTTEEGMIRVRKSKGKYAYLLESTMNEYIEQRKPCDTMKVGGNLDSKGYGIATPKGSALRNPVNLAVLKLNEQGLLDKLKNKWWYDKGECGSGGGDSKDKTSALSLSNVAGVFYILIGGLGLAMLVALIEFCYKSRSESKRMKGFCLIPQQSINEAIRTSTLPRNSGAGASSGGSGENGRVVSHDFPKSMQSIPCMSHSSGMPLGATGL
T1 sequence (P48058 21-902): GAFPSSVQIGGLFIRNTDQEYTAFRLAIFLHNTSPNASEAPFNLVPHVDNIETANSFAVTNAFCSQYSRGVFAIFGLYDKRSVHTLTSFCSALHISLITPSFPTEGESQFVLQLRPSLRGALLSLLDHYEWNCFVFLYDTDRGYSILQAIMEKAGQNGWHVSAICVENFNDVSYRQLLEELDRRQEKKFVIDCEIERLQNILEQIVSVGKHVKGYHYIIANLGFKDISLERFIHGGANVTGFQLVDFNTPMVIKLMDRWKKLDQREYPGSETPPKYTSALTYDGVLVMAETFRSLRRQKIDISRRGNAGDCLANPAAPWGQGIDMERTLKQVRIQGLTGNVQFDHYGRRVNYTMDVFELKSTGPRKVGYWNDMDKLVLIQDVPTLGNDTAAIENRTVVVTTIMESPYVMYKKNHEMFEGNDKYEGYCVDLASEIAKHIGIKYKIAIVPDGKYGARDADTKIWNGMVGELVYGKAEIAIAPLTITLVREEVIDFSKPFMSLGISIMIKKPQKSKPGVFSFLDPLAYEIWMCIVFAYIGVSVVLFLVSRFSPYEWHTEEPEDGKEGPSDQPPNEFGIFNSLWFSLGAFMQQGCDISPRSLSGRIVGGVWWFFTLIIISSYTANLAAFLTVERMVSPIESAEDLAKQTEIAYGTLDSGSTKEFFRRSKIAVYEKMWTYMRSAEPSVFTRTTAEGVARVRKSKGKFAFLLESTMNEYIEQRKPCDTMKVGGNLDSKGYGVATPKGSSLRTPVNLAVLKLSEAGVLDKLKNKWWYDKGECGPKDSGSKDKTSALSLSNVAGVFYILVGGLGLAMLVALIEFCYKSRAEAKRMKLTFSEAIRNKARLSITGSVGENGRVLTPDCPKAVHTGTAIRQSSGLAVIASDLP
Experimental: To evaluate functional antagonism of anti-miR-17 oligonucleotides towards the AMPA-R, certain oligonucleotides were tested using the manual whole-cell patch clamp technique, which records membrane currents as a measure of AMPA-R activity.
Manual whole-cell patch clamp studies were performed by Metrion Biosciences (Cambridge, UK). Whole-cell voltage clamp experiments were performed at room temperature (18-21° C.) using an EPC10 patch clamp amplifier using Patchmaster software (HEKA Elektronik). Glass patch pipettes were fabricated from borosilicate glass capillaries (Harvard Apparatus) to resistances between 1.4 and 2.5 MΩ. Membrane currents were recorded using the whole-cell patch clamp technique. ChanTest® GluA1/GluA4 EZCells were clamped at a holding potential of −80 mV and membrane currents elicited by 10 μM(S)-AMPA delivered using a VC38 perfusion system (ALA Scientific Instruments). The […] current amplitude values were measured with each application of 10 μM(S)-AMPA. The fractional change of current amplitude produced by each concentration of compound was calculated relative to the control current (pre-compound) and expressed as percentage change (% inhibition) for each cell. RGLS4326 was tested in a separate study from all other compounds in Table 6.

miR-17 [4] = assay: miR-17 luciferase sensor assay in HeLa cells; type: cell-based
Experimental: The in vitro potency of certain compounds was evaluated using a miR-17 luciferase sensor assay which uses a luciferase reporter vector for miR-17, with two fully complementary miR-17 binding sites in tandem in the 3′-UTR of the luciferase gene. HeLa cells were co-transfected with the luciferase reporter vector and an exogenous miR-17-expression vector that acted to repress the luciferase signal.

ASGSCMAFCFUFUMUSUS [RG-NG-1017]
CNS toxicity in high-dose mouse toxicity studies (mice): no CNS-toxicity were observed
CNS-related findings noted (mice; mouse, sc, 2000 mg/kg): No
EC50 (miR-17 [1]; HK-2, human, Normal): 49.2 nM
EC50 (miR-17 [1]; WT9-7, human, PKD): 20.1 nM
MTD higher than that of RGLS4326 (C57Bl/6J male mice; single ICV): > 40 fold
Mortality/total number of mice (C57Bl/6J male mice; single ICV 50 μg): 0/2
Mortality/total number of mice (C57Bl/6J male mice; single ICV 100 μg): 0/2
Mortality/total number of mice (C57Bl/6J male mice; single ICV 300 μg): 1/2
Mortality/total number of mice (C57Bl/6J male mice; single ICV 600 μg): 0/2
MTD (C57Bl/6J male mice; single ICV, C57Bl/6J mice, predicted from the study): no established MTD
EC50 (miR-17 [2]; D52B5, mouse, PKD): 74.1 nM
EC50 (miR-17 [2]; mIMCD3, mouse, Normal): 134 nM
miPSA Displacement Score, Mean (miR-17 [3]; single dose 3 mg/kg): 2.292
miPSA Displacement Score, Mean (miR-17 [3]; single dose 30 mg/kg): 2.793
miPSA Displacement Score, Mean (miR-17 [3]; single dose 0.3 m/kg): 2.077
IC50 (AMPA-R; Experiment #2): > 100000 nM
% Inhibition @ 0.1 uM (AMPA-R; Experiment #2, 0.1 uM): 0.2%
% Inhibition @ 1 uM (AMPA-R; Experiment #2, 1 uM): −1.3%
% Inhibition @ 10 uM (AMPA-R; Experiment #2, 10 uM): 4.3%
% Inhibition @ 100 uM (AMPA-R; Experiment #2, 100 uM): 8.1%
% Inhibition on membrane currents evoked with 10 uM (s)-AMPA (Mean ± SD) (AMPA-R (GluA1/GluA4); 0.3 uM compound): 20.0 ± 6.3%
% Inhibition on membrane currents evoked with 10 uM (s)-AMPA (Mean ± SD) (AMPA-R (GluA1/GluA4); 3 uM compound): 28.2 ± 5.5%
functional antagonism towards AMPA-R relative to RGLS4326 (AMPA-R (GluA1/GluA4); in words): reduced functional antagonism towards AMPA-R
Log2FC (37.5 nM) (miR-17 [4]; 37.5 nM): 2.67
EC50 (miR-17 [4]; HeLa cells, 18- to 24-hour transfection): 15 nM
